Assay [1] has as its target 5-hydroxytryptamine receptor 2A (Homo sapiens, UniProt P28223). Description: Selectivity interaction (Panel of non-epigenetic targets (kinases, GPCRs, ion channels, and transporters, Eurofins) ) EUB0000271b HTR2A. To be noted: at 1 µM.
In assay [2] the target is T1, Serine/threonine-protein kinase Nek5 (Homo sapiens) (UniProt Q6P3R8).
T1 sequence (whole entry): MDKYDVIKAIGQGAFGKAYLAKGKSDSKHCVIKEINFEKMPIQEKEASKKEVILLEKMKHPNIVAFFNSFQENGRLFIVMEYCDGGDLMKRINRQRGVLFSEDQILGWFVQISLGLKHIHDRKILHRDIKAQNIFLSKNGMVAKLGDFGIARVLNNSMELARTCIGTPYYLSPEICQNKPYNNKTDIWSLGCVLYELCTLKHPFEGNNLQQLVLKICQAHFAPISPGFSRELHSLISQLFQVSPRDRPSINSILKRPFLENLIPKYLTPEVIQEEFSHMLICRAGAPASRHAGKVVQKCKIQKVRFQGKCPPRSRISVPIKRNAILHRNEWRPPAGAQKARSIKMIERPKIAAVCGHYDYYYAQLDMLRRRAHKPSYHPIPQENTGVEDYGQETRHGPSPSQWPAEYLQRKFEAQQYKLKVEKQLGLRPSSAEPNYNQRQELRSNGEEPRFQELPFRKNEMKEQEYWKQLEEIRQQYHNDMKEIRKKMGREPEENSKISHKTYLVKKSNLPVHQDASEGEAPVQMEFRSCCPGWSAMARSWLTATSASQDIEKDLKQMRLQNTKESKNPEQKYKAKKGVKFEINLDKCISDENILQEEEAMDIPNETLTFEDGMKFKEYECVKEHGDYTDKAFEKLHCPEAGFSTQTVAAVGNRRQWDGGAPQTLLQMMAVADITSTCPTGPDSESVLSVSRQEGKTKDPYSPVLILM
Description: Selectivity interaction (KinomeScan (DiscoverX)) EUB0000666a NEK5. The note with it: at 10 µM.

The target in another assay is Focal adhesion kinase 1 (Homo sapiens, UniProt Q05397). In words: Selectivity interaction (KinomeScan (DiscoverX)) EUB0000655a PTK2. To be noted: at 10 µM.
Assay [3] addresses Serine/threonine-protein kinase PRP4 homolog (Homo sapiens) (UniProt Q13523). In words: Selectivity interaction (KinomeScan (DiscoverX)) EUB0001619a PRPF4. The note with it: at 1 µM.
Assay [4] has as its target Serine/threonine-protein kinase MARK2 (Homo sapiens) (UniProt Q7KZI7). Description: Selectivity interaction (ActivX KiNativ screen (ex vivo kinase selectivity in human PBMCs)) EUB0001619a MARK2. The format is cell-based. To be noted: PBMC, at 1 µM.
The target of assay [5] is T2, Serine/threonine-protein kinase 3 (Homo sapiens) (UniProt Q13188).
T2 sequence (whole entry): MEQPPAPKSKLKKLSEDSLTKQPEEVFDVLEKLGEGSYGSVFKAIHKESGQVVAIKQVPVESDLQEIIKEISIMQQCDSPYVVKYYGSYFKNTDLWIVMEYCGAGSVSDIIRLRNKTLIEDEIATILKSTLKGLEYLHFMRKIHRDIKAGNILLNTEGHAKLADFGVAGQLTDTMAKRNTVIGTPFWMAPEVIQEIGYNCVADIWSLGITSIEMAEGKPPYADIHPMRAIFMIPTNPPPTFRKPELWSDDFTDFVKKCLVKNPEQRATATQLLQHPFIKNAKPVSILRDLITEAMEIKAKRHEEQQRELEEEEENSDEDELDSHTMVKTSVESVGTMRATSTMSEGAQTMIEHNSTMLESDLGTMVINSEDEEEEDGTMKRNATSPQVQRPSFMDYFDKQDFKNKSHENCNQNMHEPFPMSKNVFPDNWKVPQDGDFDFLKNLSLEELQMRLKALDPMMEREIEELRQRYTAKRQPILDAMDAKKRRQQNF
In words: Selectivity interaction (ProQinase) EUB0000171b STK3.

For assay [6], the target named is T3, Interleukin-1 receptor-associated kinase 3 (Homo sapiens) (UniProt Q9Y616).
T3 sequence (whole entry): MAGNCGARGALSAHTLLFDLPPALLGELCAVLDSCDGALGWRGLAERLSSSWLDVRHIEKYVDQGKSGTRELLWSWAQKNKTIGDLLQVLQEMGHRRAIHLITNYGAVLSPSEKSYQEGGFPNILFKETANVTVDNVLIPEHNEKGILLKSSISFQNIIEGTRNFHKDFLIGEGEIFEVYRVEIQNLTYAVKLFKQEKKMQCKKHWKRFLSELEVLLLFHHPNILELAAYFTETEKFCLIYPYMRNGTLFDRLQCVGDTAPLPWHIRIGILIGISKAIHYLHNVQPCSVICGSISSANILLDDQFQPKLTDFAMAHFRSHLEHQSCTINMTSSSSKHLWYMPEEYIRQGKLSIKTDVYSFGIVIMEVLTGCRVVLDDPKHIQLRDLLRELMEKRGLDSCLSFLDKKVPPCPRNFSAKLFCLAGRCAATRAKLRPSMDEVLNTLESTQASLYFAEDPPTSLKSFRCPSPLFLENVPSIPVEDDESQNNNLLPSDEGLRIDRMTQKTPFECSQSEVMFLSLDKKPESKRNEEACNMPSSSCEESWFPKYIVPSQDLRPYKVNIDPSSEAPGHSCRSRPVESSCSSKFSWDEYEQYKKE
In words: Selectivity interaction (KinomeScan (DiscoverX)) EUB0000045b IRAK3.

In assay [7] the target is T4, Atypical kinase COQ8B, mitochondrial (Homo sapiens) (UniProt Q96D53).
T4 sequence (whole entry): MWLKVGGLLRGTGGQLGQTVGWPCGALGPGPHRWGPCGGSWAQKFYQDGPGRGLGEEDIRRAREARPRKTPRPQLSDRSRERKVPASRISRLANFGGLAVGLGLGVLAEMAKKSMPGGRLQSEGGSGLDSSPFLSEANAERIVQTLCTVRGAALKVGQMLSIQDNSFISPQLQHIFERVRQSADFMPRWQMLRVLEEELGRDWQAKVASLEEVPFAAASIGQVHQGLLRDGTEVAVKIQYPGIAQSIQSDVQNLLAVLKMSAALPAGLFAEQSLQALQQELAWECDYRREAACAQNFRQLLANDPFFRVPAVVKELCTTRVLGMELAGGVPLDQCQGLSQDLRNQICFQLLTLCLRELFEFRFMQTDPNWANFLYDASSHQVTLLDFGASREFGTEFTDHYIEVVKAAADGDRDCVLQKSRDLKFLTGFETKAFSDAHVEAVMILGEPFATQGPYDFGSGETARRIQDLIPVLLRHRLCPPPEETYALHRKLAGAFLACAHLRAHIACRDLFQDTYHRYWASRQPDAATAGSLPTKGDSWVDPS
In words: Selectivity interaction (KinomeScan (DiscoverX)) EUB0000045b ADCK4.

Assay [8] deals with Serine/threonine-protein kinase VRK2 (Homo sapiens) (UniProt Q86Y07). In words: Selectivity interaction (KinomeScan (DiscoverX)) EUB0000618a VRK2. To be noted: at 10 µM.
Serine/threonine-protein kinase VRK2 (Homo sapiens), sequence (Q86Y07 whole entry): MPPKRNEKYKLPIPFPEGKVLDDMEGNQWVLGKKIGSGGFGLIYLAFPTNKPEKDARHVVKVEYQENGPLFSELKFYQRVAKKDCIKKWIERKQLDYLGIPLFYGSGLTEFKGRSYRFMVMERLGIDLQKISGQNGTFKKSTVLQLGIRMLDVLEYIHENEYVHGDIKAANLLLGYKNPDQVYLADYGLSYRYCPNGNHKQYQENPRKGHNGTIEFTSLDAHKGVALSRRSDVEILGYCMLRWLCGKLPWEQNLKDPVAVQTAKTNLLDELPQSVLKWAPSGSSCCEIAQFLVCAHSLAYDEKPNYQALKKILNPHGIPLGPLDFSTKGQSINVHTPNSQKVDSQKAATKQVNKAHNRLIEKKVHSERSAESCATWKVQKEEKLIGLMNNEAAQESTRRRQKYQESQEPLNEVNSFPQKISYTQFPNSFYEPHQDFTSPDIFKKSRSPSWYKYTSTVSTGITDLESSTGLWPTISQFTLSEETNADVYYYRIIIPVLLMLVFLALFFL
Assay [9] has as its target Death-associated protein kinase 1 (Homo sapiens, UniProt P53355). In words: Selectivity interaction (Upstate Kinase Profiler service (Millipore)) EUB0000056c DAPK1. To be noted: at 1 µM.

This passage reports % of inhibition and % of control results from ChEMBL document CHEMBL5465560, “Selectivity Literature for EUbOPEN Chemogenomic Library” (2024).

Structures are written as SMILES.

Serine/threonine-protein kinase MARK2 (Homo sapiens), sequence (Q7KZI7 whole entry): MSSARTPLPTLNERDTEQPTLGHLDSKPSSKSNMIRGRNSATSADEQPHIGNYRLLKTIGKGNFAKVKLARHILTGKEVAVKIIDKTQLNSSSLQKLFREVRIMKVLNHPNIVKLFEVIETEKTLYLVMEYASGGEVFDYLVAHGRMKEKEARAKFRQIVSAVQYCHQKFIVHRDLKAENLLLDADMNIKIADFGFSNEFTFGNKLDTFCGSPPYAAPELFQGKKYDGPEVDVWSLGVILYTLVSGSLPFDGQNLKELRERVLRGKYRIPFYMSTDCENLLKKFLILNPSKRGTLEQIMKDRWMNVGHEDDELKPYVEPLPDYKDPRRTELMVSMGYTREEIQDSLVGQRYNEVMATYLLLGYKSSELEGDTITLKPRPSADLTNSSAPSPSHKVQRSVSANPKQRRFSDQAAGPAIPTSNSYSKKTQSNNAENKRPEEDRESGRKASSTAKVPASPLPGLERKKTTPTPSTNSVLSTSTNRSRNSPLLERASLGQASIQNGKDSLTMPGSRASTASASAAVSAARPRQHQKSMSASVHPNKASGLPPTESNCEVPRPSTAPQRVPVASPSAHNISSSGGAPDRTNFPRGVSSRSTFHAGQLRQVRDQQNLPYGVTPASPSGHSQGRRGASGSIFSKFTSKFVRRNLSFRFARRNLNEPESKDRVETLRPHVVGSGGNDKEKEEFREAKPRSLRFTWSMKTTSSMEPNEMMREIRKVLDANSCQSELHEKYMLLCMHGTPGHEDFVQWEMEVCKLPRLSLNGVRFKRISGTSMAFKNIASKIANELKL
Serine/threonine-protein kinase PRP4 homolog (Homo sapiens), sequence (Q13523 whole entry): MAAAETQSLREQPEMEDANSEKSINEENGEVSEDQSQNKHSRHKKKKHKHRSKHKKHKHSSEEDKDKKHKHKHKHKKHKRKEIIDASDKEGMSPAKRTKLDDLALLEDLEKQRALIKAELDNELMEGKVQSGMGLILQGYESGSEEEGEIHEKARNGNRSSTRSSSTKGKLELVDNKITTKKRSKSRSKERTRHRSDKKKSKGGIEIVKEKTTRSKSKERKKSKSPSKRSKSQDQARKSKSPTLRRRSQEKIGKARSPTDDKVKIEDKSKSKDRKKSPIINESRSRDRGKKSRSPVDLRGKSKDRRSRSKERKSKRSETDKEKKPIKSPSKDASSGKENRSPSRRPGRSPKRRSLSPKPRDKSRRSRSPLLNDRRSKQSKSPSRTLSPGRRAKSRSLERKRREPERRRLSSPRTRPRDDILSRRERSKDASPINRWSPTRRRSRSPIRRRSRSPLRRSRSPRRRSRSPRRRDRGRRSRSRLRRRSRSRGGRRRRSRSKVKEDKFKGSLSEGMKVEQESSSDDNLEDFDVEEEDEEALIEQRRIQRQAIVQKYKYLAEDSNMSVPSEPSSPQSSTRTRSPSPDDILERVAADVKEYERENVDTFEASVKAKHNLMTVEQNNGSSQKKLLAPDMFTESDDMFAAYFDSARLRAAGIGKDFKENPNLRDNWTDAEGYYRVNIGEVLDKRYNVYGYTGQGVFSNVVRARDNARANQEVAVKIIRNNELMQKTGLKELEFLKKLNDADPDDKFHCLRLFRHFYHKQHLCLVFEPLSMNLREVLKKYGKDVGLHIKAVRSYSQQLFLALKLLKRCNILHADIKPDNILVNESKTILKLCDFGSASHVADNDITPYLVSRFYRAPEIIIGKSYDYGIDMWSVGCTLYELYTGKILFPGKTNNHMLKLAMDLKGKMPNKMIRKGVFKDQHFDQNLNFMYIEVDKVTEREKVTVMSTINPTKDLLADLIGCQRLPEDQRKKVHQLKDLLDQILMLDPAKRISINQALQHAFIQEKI
5-hydroxytryptamine receptor 2A, sequence (P28223 whole entry): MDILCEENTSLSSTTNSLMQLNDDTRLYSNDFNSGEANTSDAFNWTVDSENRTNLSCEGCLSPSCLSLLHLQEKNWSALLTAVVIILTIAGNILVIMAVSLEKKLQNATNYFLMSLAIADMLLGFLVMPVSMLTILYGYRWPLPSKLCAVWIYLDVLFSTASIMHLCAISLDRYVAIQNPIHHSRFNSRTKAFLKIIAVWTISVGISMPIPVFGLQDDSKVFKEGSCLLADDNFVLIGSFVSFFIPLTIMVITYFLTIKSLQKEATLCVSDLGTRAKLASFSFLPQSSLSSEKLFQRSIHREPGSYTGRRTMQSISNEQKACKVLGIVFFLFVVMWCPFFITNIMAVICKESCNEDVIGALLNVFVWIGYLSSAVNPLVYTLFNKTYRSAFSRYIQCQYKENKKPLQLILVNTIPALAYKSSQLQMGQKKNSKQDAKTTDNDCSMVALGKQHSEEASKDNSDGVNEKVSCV
Death-associated protein kinase 1, sequence (P53355 whole entry, looked up): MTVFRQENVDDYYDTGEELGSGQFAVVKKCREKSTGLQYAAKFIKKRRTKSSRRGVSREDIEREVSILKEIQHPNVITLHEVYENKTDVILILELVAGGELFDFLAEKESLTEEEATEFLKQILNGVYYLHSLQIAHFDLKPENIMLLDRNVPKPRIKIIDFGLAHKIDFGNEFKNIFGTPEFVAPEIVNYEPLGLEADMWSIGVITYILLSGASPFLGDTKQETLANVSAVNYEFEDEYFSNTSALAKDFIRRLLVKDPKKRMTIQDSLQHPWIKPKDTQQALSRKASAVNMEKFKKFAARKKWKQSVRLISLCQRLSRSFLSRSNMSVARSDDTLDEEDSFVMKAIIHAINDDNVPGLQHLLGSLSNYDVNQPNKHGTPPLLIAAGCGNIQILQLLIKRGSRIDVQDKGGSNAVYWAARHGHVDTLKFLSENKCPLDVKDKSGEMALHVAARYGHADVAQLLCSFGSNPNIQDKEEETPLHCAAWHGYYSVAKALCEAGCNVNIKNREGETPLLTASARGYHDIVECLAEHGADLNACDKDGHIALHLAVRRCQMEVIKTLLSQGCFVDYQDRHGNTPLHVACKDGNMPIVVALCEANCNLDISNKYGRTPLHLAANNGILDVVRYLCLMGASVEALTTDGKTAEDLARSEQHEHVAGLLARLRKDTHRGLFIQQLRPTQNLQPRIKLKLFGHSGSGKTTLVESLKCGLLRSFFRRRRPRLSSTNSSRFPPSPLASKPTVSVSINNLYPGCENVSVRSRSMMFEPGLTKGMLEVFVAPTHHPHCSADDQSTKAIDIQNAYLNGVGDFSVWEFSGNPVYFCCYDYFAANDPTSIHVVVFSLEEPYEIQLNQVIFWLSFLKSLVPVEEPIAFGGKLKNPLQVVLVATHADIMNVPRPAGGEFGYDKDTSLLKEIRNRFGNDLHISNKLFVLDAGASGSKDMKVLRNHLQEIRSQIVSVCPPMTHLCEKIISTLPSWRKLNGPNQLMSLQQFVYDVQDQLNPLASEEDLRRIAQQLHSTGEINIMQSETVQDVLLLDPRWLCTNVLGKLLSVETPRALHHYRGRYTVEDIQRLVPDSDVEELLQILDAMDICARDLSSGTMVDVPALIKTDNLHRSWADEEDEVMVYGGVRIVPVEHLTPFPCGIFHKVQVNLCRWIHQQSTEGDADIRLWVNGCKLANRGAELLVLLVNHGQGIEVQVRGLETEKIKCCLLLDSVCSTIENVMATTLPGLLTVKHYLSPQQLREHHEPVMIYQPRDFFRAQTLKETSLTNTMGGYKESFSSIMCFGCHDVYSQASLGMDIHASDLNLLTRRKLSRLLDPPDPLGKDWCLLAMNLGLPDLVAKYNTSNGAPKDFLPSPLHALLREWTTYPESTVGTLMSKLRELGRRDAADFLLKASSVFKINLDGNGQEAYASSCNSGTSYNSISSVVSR

For the molecule `Cc1cc(C)cc([C@@H]2c3cc(C)ccc3NC(=O)CN2C(=O)c2ccc(Br)s2)c1`, the % of inhibition in assay [1] came to 12%.

Consider `O=C(NOC[C@H](O)CO)c1ccc(F)c(F)c1Nc1ccc(I)cc1F`, for which the % of control in assay [2] was 78%. Turning to `CN(C)CCOc1ccc(-c2nc(-c3ccncc3)c(-c3ccc4c(c3)CC/C4=N\O)[nH]2)cc1`, the % of control on Focal adhesion kinase 1 came out at 100%. As to `N#Cc1cccc(-c2c[nH]c3ncnc(N4CCOCC4)c23)c1`, in [3], the % of control was determined as 92%. The % of inhibition in assay [4] stood at 27%. As to `C=CC(=O)Nc1cccc(C(=O)Nc2ccc(Nc3cc(-c4[nH]c(SC)nc4C)ccn3)cc2)c1`, the figures for the % of control in [5] (at 1 µM) and in [5] (at 5 µM) were 83% and 69%, respectively. Consider `C=CC(=O)Nc1cc(-n2c(=O)ccc3cnc4ccc(-c5ccc(NS(C)(=O)=O)cc5)cc4c32)ccc1C`, for which the % of control came to 73% in assay [6] (at 1 µM), 34% in [6] (at 10 µM), 100% in [7] (at 1 µM) and 64% in assay [7] (at 10 µM). The molecule `O[C@H]1CC[C@H](Nc2ncc3nc(Nc4c(F)cc(F)cc4F)n([C@H]4CCOC4)c3n2)CC1` registered a % of control in [8] of 100%. Molecule `Cc1ccc(-c2ccc3c(ccc4sc5c(c43)NC[C@@H](C)NC5=O)n2)cn1` gave a % of inhibition in [9] of 11%.
